Source: ChEMBL document CHEMBL6083266, “Diastereomeric pure pyrazolyl-indolyl dihydrofurans: Unveiling isomeric selectivity in antibacterial action via in vitro and in silico insights” (Bioorg Med Chem Lett, 2024)
In brackets after ≈: the same amount, converted by molar mass.

How the values were obtained:
[1] = tested on: Staphylococcus aureus; experiment: Antibacterial activity against methicillin-resistant Staphylococcus aureus; format: functional
[2] = Cytotoxicity against mouse fibroblast cells assessed as cell viability at […] (reference value: 90.23 %); format: toxicity, cell-based; parameters: dose or concentration left out as unconfirmed; conditions: read-out: Activity
[3] = tested on: Pseudomonas aeruginosa; experiment: Antimicrobial activity against Pseudomonas aeruginosa by serial dilution method; format: functional
[4] = tested on: Staphylococcus aureus; experiment: Antimicrobial activity against Staphylococcus aureus by serial dilution method; format: functional
[5] = tested on: Listeria monocytogenes; experiment: Antimicrobial activity against Listeria monocytogenes by serial dilution method; format: functional
[6] = tested on: Bacillus cereus; experiment: Antimicrobial activity against Bacillus cereus by serial dilution method; format: functional
[7] = tested on: Escherichia coli; experiment: Antimicrobial activity against Escherichia coli by serial dilution method; format: functional
[8] = tested on: Salmonella typhi; experiment: Antimicrobial activity against Salmonella typhi by serial dilution method; format: functional, Salmonella enterica subsp. enterica serovar Typhi; conditions: Salmonella enterica
[9] = tested on: Shigella flexneri; experiment: Antimicrobial activity against Shigella flexneri by serial dilution method; format: functional
[10] = tested on: Candida albicans; experiment: Antimicrobial activity against Candida albicans by serial dilution method; format: functional

CC(=O)/C(=C\c1cn(CC(=O)N2CCCCC2)c2ccccc12)n1c([N+](=O)[O-])cnc1C showed an MIC [1] of 1 mg/L (≈ 2.3 µM).
With CCOC(=O)C1(C(=O)OCC)C[C@@H](c2c[nH]c3ccccc23)O[C@H]1c1cn(-c2ccccc2)nc1-c1ccccc1 the viability [2] was 93.2%.
Work on CCOC(=O)C1(C(=O)OCC)C[C@@H](c2c[nH]c3ccc(Cl)cc23)O[C@H]1c1cn(-c2ccccc2)nc1-c1ccc(OC)cc1 yielded a viability [2] of 91.4%.
In the case of CCOC(=O)C1(C(=O)OCC)C[C@@H](c2c[nH]c3ccc(Cl)cc23)O[C@H]1c1cn(-c2ccccc2)nc1-c1ccccc1, the viability [2] is reported as 94.3%.
CCOC(=O)C1(C(=O)OCC)C[C@@H](c2c[nH]c3ccc(Cl)cc23)O[C@H]1c1cn(-c2ccccc2)nc1-c1ccc(C)cc1 showed a viability [2] of 97.6%.
With CCOC(=O)C1(C(=O)OCC)C[C@@H](c2c[nH]c3ccc(C)cc23)O[C@H]1c1cn(-c2ccccc2)nc1-c1ccc(OC)cc1 the viability [2] was 93.5%.
CCOC(=O)C1(C(=O)OCC)C[C@@H](c2c[nH]c3ccccc23)O[C@H]1c1cn(-c2ccccc2)nc1-c1ccc(F)cc1 gave a viability [2] of 99.1%.
In the case of CCOC(=O)C1(C(=O)OCC)C[C@@H](c2c[nH]c3ccc(Cl)cc23)O[C@H]1c1cn(-c2ccccc2)nc1-c1ccc(Cl)cc1, the viability [2] is reported as 95.2%.
For CCOC(=O)C1(C(=O)OCC)C[C@@H](c2c[nH]c3ccc(F)cc23)O[C@H]1c1cn(-c2ccccc2)nc1-c1ccc(F)cc1, the viability [2] was 96.2%.
Compound CCOC(=O)C1(C(=O)OCC)C[C@@H](c2c[nH]c3ccc(F)cc23)O[C@H]1c1cn(-c2ccccc2)nc1-c1ccccc1 has a viability [2] of 95.7%.
In the case of CCOC(=O)C1(C(=O)OCC)C[C@@H](c2c[nH]c3ccccc23)O[C@@H]1c1cn(-c2ccccc2)nc1-c1ccc(Cl)cc1, the MIC [3] is reported as 3.12 mg/L (≈ 5.35 µM), the MIC [4] is reported as 6.25 mg/L (≈ 10.7 µM) and the MIC [5] is reported as 12.5 mg/L (≈ 21.4 µM). For the same compound, the MIC [6] was 6.25 mg/L (≈ 10.7 µM), the MIC [7] was 6.25 mg/L (≈ 10.7 µM) and the MIC [8] was 6.25 mg/L (≈ 10.7 µM). For the same compound, the MIC [9] was 12.5 mg/L (≈ 21.4 µM) and the MIC [10] was 12.5 mg/L (≈ 21.4 µM).
Work on CCOC(=O)C1(C(=O)OCC)C[C@@H](c2c[nH]c3ccc(C)cc23)O[C@H]1c1cn(-c2ccccc2)nc1-c1ccccc1 yielded a viability [2] of 92.3%.
With CCOC(=O)C1(C(=O)OCC)C[C@@H](c2c[nH]c3ccccc23)O[C@H]1c1cn(-c2ccccc2)nc1-c1ccc(Cl)cc1 the MIC [3] was 1.56 mg/L (≈ 2.67 µM), the MIC [4] was 1.56 mg/L (≈ 2.67 µM) and the MIC [5] was 1.56 mg/L (≈ 2.67 µM). For the same compound, the MIC [6] was 1.56 mg/L (≈ 2.67 µM), the MIC [7] was 3.12 mg/L (≈ 5.35 µM) and the MIC [8] was 1.56 mg/L (≈ 2.67 µM). For the same compound, the MIC [9] was 6.25 mg/L (≈ 10.7 µM), the MIC [10] was 12.5 mg/L (≈ 21.4 µM) and the viability [2] was 98.1%.
CCOC(=O)C1(C(=O)OCC)C[C@@H](c2c[nH]c3ccc(OC)cc23)O[C@H]1c1cn(-c2ccccc2)nc1-c1ccc(Cl)cc1 showed a viability [2] of 88.8%.
CCOC(=O)C1(C(=O)OCC)C[C@@H](c2c[nH]c3ccc(F)cc23)O[C@H]1c1cn(-c2ccccc2)nc1-c1ccc(C)cc1 showed a viability [2] of 96.5%.
Work on CCOC(=O)C1(C(=O)OCC)C[C@@H](c2c[nH]c3ccc(OC)cc23)O[C@H]1c1cn(-c2ccccc2)nc1-c1ccc(F)cc1 yielded a viability [2] of 94.8%.
CCOC(=O)C1(C(=O)OCC)C[C@@H](c2c[nH]c3ccc(OC)cc23)O[C@H]1c1cn(-c2ccccc2)nc1-c1ccc(C)cc1 showed a viability [2] of 88.9%.
Compound CCOC(=O)C1(C(=O)OCC)C[C@@H](c2c[nH]c3ccccc23)O[C@H]1c1cn(-c2ccccc2)nc1-c1ccc(C)cc1 has a viability [2] of 95.3%.
In the case of CCOC(=O)C1(C(=O)OCC)C[C@@H](c2c[nH]c3ccccc23)O[C@H]1c1cn(-c2ccccc2)nc1-c1ccc(OC)cc1, the viability [2] is reported as 94.3%.
In the case of CCOC(=O)C1(C(=O)OCC)C[C@@H](c2c[nH]c3ccc(F)cc23)O[C@H]1c1cn(-c2ccccc2)nc1-c1ccc(OC)cc1, the viability [2] is reported as 94.6%.
Work on CCOC(=O)C1(C(=O)OCC)C[C@@H](c2c[nH]c3ccc(C)cc23)O[C@H]1c1cn(-c2ccccc2)nc1-c1ccc(F)cc1 yielded a viability [2] of 99.2%.
For CCOC(=O)C1(C(=O)OCC)C[C@@H](c2c[nH]c3ccc(C)cc23)O[C@H]1c1cn(-c2ccccc2)nc1-c1ccc(C)cc1, the viability [2] was 94.2%.
CCOC(=O)C1(C(=O)OCC)C[C@@H](c2c[nH]c3ccc(OC)cc23)O[C@H]1c1cn(-c2ccccc2)nc1-c1ccccc1 showed a viability [2] of 90.1%.
Compound CCOC(=O)C1(C(=O)OCC)C[C@@H](c2c[nH]c3ccc(F)cc23)O[C@H]1c1cn(-c2ccccc2)nc1-c1ccc(Cl)cc1 has a viability [2] of 99.1%.
With CCOC(=O)C1(C(=O)OCC)C[C@@H](c2c[nH]c3ccc(Cl)cc23)O[C@H]1c1cn(-c2ccccc2)nc1-c1ccc(F)cc1 the viability [2] was 90.5%.
For CCOC(=O)C1(C(=O)OCC)C[C@@H](c2c[nH]c3ccc(OC)cc23)O[C@H]1c1cn(-c2ccccc2)nc1-c1ccc(OC)cc1, the viability [2] was 90.1%.
With CCOC(=O)C1(C(=O)OCC)C[C@@H](c2c[nH]c3ccc(C)cc23)O[C@H]1c1cn(-c2ccccc2)nc1-c1ccc(Cl)cc1 the viability [2] was 92.3%.
In the case of Clc1cccc(-n2nc(C3CCNCC3)cc2/C=C/c2c[nH]c3ccc(Cl)cc23)c1, the MIC [1] is reported as 1 mg/L (≈ 2.29 µM).
For CC1(C)S[C@@H]2[C@H](NC(=O)[C@H](N)c3ccc(O)cc3)C(=O)N2[C@H]1C(=O)O [AMOXICILLIN], the MIC [3] was 3.12 mg/L (≈ 8.55 µM), the MIC [4] was 3.12 mg/L (≈ 8.55 µM) and the MIC [5] was 3.12 mg/L (≈ 8.55 µM). For the same compound, the MIC [6] was 3.12 mg/L (≈ 8.55 µM), the MIC [7] was 3.12 mg/L (≈ 8.55 µM) and the MIC [8] was 3.12 mg/L (≈ 8.55 µM). The MIC [9] was 3.12 mg/L (≈ 8.55 µM) and the MIC [10] was 6.25 mg/L (≈ 17.1 µM).
In the case of OC(Cn1cncn1)(Cn1cncn1)c1ccc(F)cc1F [FLUCONAZOLE], the MIC [10] is reported as 6.25 mg/L (≈ 20.4 µM).
